In patent US11512079B2, “Heterocycle substituted pyridine derivative antifungal agents” (Amplyx Pharmaceuticals, Inc., priority 2017, dated 2022):
Converted amounts (≈) assume the structure as drawn.

Legend:
Type in all cases: cell-based
[1] = test system: Rhizomucor pusillus 46342; assay: In vitro antifungal assay (Example IX), microdilution broth, MEC; conditions: minimum effective concentration (shortening of hyphae), 35° C., 40-48 h, RPMI1640
Method in brief: (§1)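 Read-out is the minimum effective concentration: lowest compound level causing shorter hyphae than in DMSO controls, echinocandin-style. Broth microdilution used conidia or spores harvested from agar plates, cleared of mycelium and clumps, at a final 1-2×10^4 spores/mL in RPMI1640.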

[2] = test system: Aspergillus fumigatus MYA3626; assay: as above; conditions: minimum effective concentration (shortening of hyphae), 35° C., 40-48 h, RPMI1640
Method in brief: as §1

[3] = test system: Cryptococcus neoformans H99; assay: In vitro antifungal assay (Example IX), microdilution broth, MIC; conditions: minimum inhibitory concentration (≥50% inhibition), 35° C., 72 h, RPMI1640
Method in brief: (§2)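 Yeast inocula (2.5×10^3 cells/mL, RPMI1640) were exposed to twofold compound series reaching 2-0.0019 μg/mL final, per CLSI yeast methodology. Incubation at 35° C. ran 40-48 h for Candida albicans 90028 and 72 h for Cryptococcus neoformans H99. MIC endpoints were confirmed by absorbance at 600 nm.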

[4] = test system: Candida albicans 90028; assay: as above; conditions: minimum inhibitory concentration (≥50% inhibition), 35° C., 40-48 h, RPMI1640
Method in brief: as §2

[5] = test system: Cryptococcus gattii; assay: as above; conditions: minimum inhibitory concentration (≥50% inhibition), 35° C., 72 h (Cryptococcus), RPMI1640
Method in brief: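 MIC was determined from OD600 after 72 h at 35 °C for Cryptococcus, in RPMI1640 inoculated at 2.5×10^3 cells/mL. Compounds were tested as a 2-fold series from 2 to 0.0019 μg/mL final, added from DMSO intermediates at a 100-fold dilution.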

SMILES	minimal effective concentration [1] [µg/mL]	minimal effective concentration [2] [µg/mL]	MIC [3] [µg/mL]	MIC [4] [µg/mL]	MIC [5] [µg/mL]
Nc1ncccc1-c1cc(Cc2ccc(OCc3ccco3)nc2)no1 [compound 73, 3-(3-((6-(furan-2-ylmethoxy)pyridin-3-yl)methyl)isoxazol-5-yl)pyridin-2-amine]	> 1	0.1 to 1	> 1	0.01 to 0.1 (≈ 0.0287 to 0.287 µM)	> 1
Nc1ncccc1-c1cc(Cc2ccc(NCc3ccccc3F)nc2)no1 [compound 74, 5-((5-(2-aminopyridin-3-yl)isoxazol-3-yl)methyl)-N-(2-fluorobenzyl)pyridin-2-amine]	> 1	0.1 to 1	0.01 to 0.1 (≈ 0.0266 to 0.266 µM)	0.01 to 0.1 (≈ 0.0266 to 0.266 µM)	0.01 to 0.1 (≈ 0.0266 to 0.266 µM)
Nc1ncccc1-c1cc(Cc2ccc(Oc3ccc(F)cc3F)nc2)no1 [compound 75, 3-(3-((6-(2,4-difluorophenoxy)pyridin-3-yl)methyl)isoxazol-5-yl)pyridin-2-amine]	0.1 to 1	0.01 to 0.1	0.01 to 0.1 (≈ 0.0263 to 0.263 µM)	0.01 to 0.1 (≈ 0.0263 to 0.263 µM)	0.1 to 1 (≈ 0.263 to 2.63 µM)
Nc1ncccc1-c1cc(Cc2ccc(OCCc3ccccc3F)nc2)no1 [compound 77, 3-(3-((6-(2-fluorophenethoxy)pyridin-3-yl)methyl)isoxazol-5-yl)pyridin-2-amine]	0.1 to 1	0.1 to 1	0.01 to 0.1 (≈ 0.0256 to 0.256 µM)	0.01 to 0.1 (≈ 0.0256 to 0.256 µM)	0.01 to 0.1 (≈ 0.0256 to 0.256 µM)
Nc1ncccc1-c1cc(Cc2ccc(OCCc3ccccc3)nc2)no1 [compound 78, 3-(3-((6-phenethoxypyridin-3-yl)methyl)isoxazol-5-yl)pyridin-2-amine]	0.1 to 1	0.1 to 1	0.01 to 0.1 (≈ 0.0269 to 0.269 µM)	0.01 to 0.1 (≈ 0.0269 to 0.269 µM)	0.01 to 0.1 (≈ 0.0269 to 0.269 µM)
Nc1ncccc1-c1cc(Cc2ccc(OCCc3ccc(F)cc3)nc2)no1 [compound 79, 3-(3-((6-(4-fluorophenethoxy)pyridin-3-yl)methyl)isoxazol-5-yl)pyridin-2-amine]	0.1 to 1	0.1 to 1	0.01 to 0.1 (≈ 0.0256 to 0.256 µM)	0.01 to 0.1 (≈ 0.0256 to 0.256 µM)	0.1 to 1 (≈ 0.256 to 2.56 µM)
Nc1ncccc1-c1cc(Cc2ccc(OCc3cccc(F)c3)nc2)no1 [compound 80, 3-(3-((6-((3-fluorobenzyl)oxy)pyridin-3-yl)methyl)isoxazol-5-yl)pyridin-2-amine]	0.1 to 1	≤ 0.01	0.01 to 0.1 (≈ 0.0266 to 0.266 µM)	≤ 0.01	0.01 to 0.1 (≈ 0.0266 to 0.266 µM)
Nc1ncccc1-c1cc(Cc2ccc(Oc3cc(F)cc(F)c3)nc2)no1 [compound 81, 3-(3-((6-(3,5-difluorophenoxy)pyridin-3-yl)methyl)isoxazol-5-yl)pyridin-2-amine]	0.1 to 1	0.01 to 0.1	≤ 0.01	0.01 to 0.1 (≈ 0.0263 to 0.263 µM)	0.01 to 0.1 (≈ 0.0263 to 0.263 µM)
Cc1csc(COc2ccc(Cc3cc(-c4cccnc4N)on3)cn2)n1 [compound 82, 3-(3-((6-((4-methylthiazol-2-yl)methoxy)pyridin-3-yl)methyl)isoxazol-5-yl)pyridin-2-amine]	> 1	0.01 to 0.1	0.01 to 0.1 (≈ 0.0264 to 0.264 µM)	0.1 to 1 (≈ 0.264 to 2.64 µM)	0.01 to 0.1 (≈ 0.0264 to 0.264 µM)
Nc1ncccc1-c1cc(Cc2ccc(OCc3ccnc(Cl)c3)nc2)no1 [compound 83, 3-(3-((6-((2-chloropyridin-4-yl)methoxy)pyridin-3-yl)methyl)isoxazol-5-yl)pyridin-2-amine]	> 1	0.01 to 0.1	≤ 0.01	0.01 to 0.1 (≈ 0.0254 to 0.254 µM)	0.01 to 0.1 (≈ 0.0254 to 0.254 µM)
Nc1ncccc1-c1cc(Cc2ccc(OCc3cc(F)cc(F)c3)nc2)no1 [compound 84, 3-(3-((6-((3,5-difluorobenzyl)oxy)pyridin-3-yl)methyl)isoxazol-5-yl)pyridin-2-amine]	0.1 to 1	0.01 to 0.1	0.01 to 0.1 (≈ 0.0254 to 0.254 µM)	0.01 to 0.1 (≈ 0.0254 to 0.254 µM)	0.1 to 1 (≈ 0.254 to 2.54 µM)
